Calls of active or inactive are those of the source. The rule behind the calls is not given here.
Assays:
Caco-2 [1] = test: Cytotoxicity against human Caco2 cells up to 40 uM after 24 hrs by MTT assay; assay type: functional, cell-based
DNA [2] = test: Binding affinity to calf thymus DNA assessed as melting temperature at 10 uM by UV-Vis spectrophotometer analysis; assay type: nucleic-acid assay; settings: Bos taurus
DNA [3] = test: Displacement of ethidium bromide from calf thymus DNA assessed as fluorescence quenching by fluorometric assay; assay type: nucleic-acid assay; settings: Bos taurus
Escherichia coli = test: Binding affinity to Escherichia coli supercoiled pBR322 assessed as change in morphology of plasmid to more relaxed conformation at 50 to 100 uM by agarose gel electrophoresis
[4] = molecular target: T1, DNA topoisomerase 1 (Homo sapiens) (UniProt P11387); test: Inhibition of topoisomerase 1 (unknown origin) relaxation of supercoiled pBR322 at 50 to 100 uM by agarose gel electrophoresis
T1 sequence (whole entry): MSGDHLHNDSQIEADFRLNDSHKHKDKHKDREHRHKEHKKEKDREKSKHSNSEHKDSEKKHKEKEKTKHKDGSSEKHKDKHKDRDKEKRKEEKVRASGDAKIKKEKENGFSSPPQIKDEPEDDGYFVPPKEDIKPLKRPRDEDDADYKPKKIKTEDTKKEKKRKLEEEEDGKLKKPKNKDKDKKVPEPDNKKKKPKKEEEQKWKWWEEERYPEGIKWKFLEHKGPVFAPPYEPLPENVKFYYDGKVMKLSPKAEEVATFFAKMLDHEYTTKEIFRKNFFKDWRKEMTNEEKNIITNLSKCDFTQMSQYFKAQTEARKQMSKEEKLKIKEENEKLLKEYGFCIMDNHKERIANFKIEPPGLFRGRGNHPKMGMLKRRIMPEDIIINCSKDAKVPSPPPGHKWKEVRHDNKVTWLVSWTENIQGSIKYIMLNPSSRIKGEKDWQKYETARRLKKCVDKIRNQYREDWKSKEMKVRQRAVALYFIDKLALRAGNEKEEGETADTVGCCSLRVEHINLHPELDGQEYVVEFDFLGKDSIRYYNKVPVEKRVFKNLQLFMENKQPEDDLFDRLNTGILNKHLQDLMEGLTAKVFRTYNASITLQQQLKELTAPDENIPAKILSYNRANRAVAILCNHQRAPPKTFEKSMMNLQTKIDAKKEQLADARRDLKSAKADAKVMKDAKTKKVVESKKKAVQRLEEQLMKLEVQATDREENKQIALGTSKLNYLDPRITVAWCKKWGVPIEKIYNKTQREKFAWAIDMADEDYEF

[5] = molecular target: DNA topoisomerase 2-alpha (Homo sapiens) (UniProt P11388); test: Inhibition of topoisomerase 2 (unknown origin) relaxation of supercoiled pBR322 at 50 to 100 uM by agarose gel electrophoresis
Sequence of DNA topoisomerase 2-alpha (Homo sapiens) (P11388 whole entry): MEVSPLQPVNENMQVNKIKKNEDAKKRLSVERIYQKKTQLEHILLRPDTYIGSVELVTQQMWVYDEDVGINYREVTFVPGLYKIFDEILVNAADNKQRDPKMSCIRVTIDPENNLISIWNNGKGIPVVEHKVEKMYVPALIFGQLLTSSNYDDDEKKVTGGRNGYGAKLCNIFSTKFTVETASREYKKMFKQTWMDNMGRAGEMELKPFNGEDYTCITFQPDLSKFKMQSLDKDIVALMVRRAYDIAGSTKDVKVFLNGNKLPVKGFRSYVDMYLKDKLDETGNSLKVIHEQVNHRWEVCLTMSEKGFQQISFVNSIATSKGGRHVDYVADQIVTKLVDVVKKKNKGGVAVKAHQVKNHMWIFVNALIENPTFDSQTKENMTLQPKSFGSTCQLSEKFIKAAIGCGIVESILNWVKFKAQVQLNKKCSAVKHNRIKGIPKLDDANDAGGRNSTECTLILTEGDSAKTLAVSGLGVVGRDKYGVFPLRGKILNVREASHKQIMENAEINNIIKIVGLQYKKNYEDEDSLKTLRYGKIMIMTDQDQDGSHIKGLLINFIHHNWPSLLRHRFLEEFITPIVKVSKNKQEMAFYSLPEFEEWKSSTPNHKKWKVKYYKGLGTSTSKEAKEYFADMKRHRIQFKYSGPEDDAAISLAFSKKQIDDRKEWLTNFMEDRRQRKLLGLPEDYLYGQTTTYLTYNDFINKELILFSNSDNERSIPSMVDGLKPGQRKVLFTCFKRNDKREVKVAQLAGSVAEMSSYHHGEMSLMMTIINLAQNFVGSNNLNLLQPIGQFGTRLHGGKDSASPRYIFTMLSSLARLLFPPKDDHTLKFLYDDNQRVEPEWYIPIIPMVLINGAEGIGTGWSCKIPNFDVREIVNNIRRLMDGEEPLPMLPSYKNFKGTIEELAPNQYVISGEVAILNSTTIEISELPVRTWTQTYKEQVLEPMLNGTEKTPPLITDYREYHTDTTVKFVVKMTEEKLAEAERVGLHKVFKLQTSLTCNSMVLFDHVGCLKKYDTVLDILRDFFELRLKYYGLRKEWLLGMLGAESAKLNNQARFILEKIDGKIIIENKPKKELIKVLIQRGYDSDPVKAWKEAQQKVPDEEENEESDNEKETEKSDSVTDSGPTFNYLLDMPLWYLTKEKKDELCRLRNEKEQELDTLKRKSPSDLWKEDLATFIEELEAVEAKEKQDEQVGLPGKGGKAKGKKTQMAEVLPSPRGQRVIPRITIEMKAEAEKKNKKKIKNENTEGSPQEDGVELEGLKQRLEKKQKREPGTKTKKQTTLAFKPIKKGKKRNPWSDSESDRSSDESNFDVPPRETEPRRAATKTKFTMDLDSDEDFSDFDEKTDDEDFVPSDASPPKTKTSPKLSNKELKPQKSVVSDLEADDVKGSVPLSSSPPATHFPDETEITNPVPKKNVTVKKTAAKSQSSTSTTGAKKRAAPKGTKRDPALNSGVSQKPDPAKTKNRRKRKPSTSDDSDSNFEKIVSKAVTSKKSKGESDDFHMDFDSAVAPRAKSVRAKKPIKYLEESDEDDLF

Caco-2 [6] = test: Cytotoxicity against human Caco2 cells after 72 hrs by MTT assay; assay type: functional, cell-based; settings: for IC50: Caco-2, 72 h

Row | Structure (SMILES) | Activity (Caco-2 [1]) | Tm (DNA [2]) [°C] | C50 (DNA [3]) | Activity (Escherichia coli) | inhibition [4] | inhibition [5] | IC50 (Caco-2 [6]) [µM] | Activity (Caco-2 [6])
1 | O=C1c2cccc(O)c2C2=NC(CCCCO)Oc3cccc1c32 (centres undefined) | inactive | 62.2 | inactive | – | – | – | – | –
2 | O=C1c2cccc(O)c2C2=NC(CCO)Oc3cccc1c32 (centres undefined) | inactive | 57.2 | inactive | – | – | – | – | –
3 | O=C1c2cccc(O)c2C2=NC(CCCO)Oc3cccc1c32 (centres undefined) | inactive | 58.4 | inactive | – | – | – | – | –
4 | O=C1c2cccc(O)c2C2=NC(CO)Oc3cccc1c32 (centres undefined) | inactive | 64.3 | inactive | – | – | – | – | –
5 | O=C1c2cccc(O)c2C2=NC(CCCCCO)Oc3cccc1c32 (centres undefined) | inactive | 59.2 | inactive | – | – | – | – | –
6 | NCCC1CCCCN1C1N=C2c3c(O)cccc3C(=O)c3cccc(c32)O1 (centres undefined) | inactive | 79.9 | 6 µM | Active | inactive | inactive | 16 | –
7 | NCCC1CN(C2N=C3c4c(O)cccc4C(=O)c4cccc(c43)O2)CCO1 (centres undefined) | inactive | 66.2 | inactive | – | – | – | – | inactive
8 | COc1cccc2c1C(=O)c1c(O)c3c(c(O)c1C2=O)C[C@@](O)(C(=O)CO)C[C@@H]3O[C@H]1C[C@H](N)[C@H](O)[C@H](C)O1 [DOXORUBICIN] | inactive | 92 | – | – | – | – | 5 | –

— ChEMBL document CHEMBL2434852, “Synthesis, cytotoxicity and DNA binding of oxoazabenzo[de]anthracenes derivatives in colon cancer Caco-2 cells” (Eur J Med Chem, 2013)
